The values that follow come from US20140193802A1, “IDENTIFICATION OF AN ALTERED THERAPEUTIC SUSCEPTIBILITY TO ANTI-HCMV COMPOUNDS AND OF A RESISTANCE AGAINST ANTI-HCMV COMPOUNDS” (priority 2012, published 2014).

Assay in all cases: CPE-RA, letermovir-selected mutant
Holding throughout (format): cell-based, human cytomegalovirus (HCMV)

The test system of experiment [1] is HCMV AD169 mutant rAIC246-8 (UL56 C325Y). To be noted: for EC50: Human betaherpesvirus 5, AD169, rAIC246-8 (UL56 C325Y), CPE reduction assay, mean ± SD. As to the method: (§1) HCMV Cytopathic Effect Reduction Assay (CPE-RA)
(§2) CPE-RAs were performed basically as described elsewhere (HCMV replication assay). In brief, the addition of 2 μl test compound of 50, 5, 0.5, 0.05, 0.005, and 0.0005 mM DMSO stock solutions to 100 μl cell culture medium in duplicate was followed by serial 2-fold dilutions in 96-well microtiter plates. Each well was supplemented with 150 μl of either a suspension of 1×10^4 NHDF cells mixed with cell-free HCMV (multiplicity of infection (MOI), 0.03) or a suspension of 1×10^4 to 3×10^4 HCMV-infected and uninfected NHDF cells (MOI, 0.001 to 0.002). Non-infected and non-treated cells served as controls on each plate. Final compound concentrations ranged between 250 and 0.00005 μM. Plates were incubated for 6 to 7 days at 37° C. or until the virus control reached 100% CPE. A mixture containing 20% Giemsa stain (Merck) and 5% formalin solution (Merck) was added to the wells for fixation and staining. After extensive washing, plates were dried at 56° C. followed by visual evaluation using an overhead microscope (plaque magnifier; Tecnorama Zürich). Each assay was performed at least in triplicate, and standard deviations were calculated. The assay plate data were used to calculate the EC50 (CPE-RA), i.e., the concentration of drug that inhibits the CPE by 50% compared with an untreated virus-infected control.
(§3) Drug-resistant HCMV AD169 mutants were selected by the single-step selection method or by serial passage of the virus in the presence of increasing concentration of Letermovir. Briefly, 5×10^3 AD169-infected NHDF cells/well (MOI, 0.03 PFU/cell) were seeded into the wells of 30 96-well microtiter plates. The infection was allowed to proceed under the exposure of 50 nM Letermovir (˜10×EC50) until a CPE developed in one or more of the compound-treated wells (indicative of resistant virus breakthrough). Non-infected and non-treated cells served as controls on each plate. Mutant virus amplification was accomplished after cultures achieved maximum CPE by the passage of cell-free supernatant virus in the presence of 50 nM Letermovir. The resultant Letermovir-resistant progeny virus mutants were plaque purified three times by limiting dilutions in the presence of Letermovir. The stability of resistance was tested by serially passaging plaque-purified viruses without selective pressure (8 to 10 times). The resistant phenotype of the mutants was confirmed by CPE reduction assays.

The test system of experiment [2] is HCMV AD169 mutant rAIC246-4 (UL56 V231L). To be noted: for EC50: Human betaherpesvirus 5, AD169, rAIC246-4 (UL56 V231L), CPE reduction assay, mean ± SD. As to the method:
as §1, §2, §3

In experiment [3] the test system is HCMV AD169 mutant rAIC246-1 (UL56 L241P). To be noted: for EC50: Human betaherpesvirus 5, AD169. On the procedure:
as §1, §2, §3

Experiment [4] concerns HCMV AD169 mutant rAIC246-7 (UL56 L241P). The conditions noted are these: for EC50: Human betaherpesvirus 5, AD169, rAIC246-7 (UL56 L241P), CPE reduction assay, mean ± SD. On the procedure: as §1, §2, §3
Experiment [5] concerns HCMV AD169 mutant rAIC246-3 (UL56 C325Y). The conditions noted are these: for EC50: Human betaherpesvirus 5, AD169, rAIC246-3 (UL56 C325Y), CPE reduction assay, mean ± SD. As to the method:
as §1, §2, §3

Experiment [6] relates to HCMV AD169 mutant rAIC246-5 (UL56 R369M). To be noted: for EC50: Human betaherpesvirus 5, AD169, rAIC246-5 (UL56 R369M), CPE reduction assay, mean ± SD. As to the method: as §1, §2, §3
The test system of experiment [7] is HCMV AD169 mutant rAIC246-2 (UL56 R369S). The conditions noted are these: for EC50: Human betaherpesvirus 5, AD169, rAIC246-2 (UL56 R369S), CPE reduction assay, mean ± SD. On the procedure:
as §1, §2, §3

In experiment [8] the test system is HCMV AD169 mutant rAIC246-10 (UL56 V236M). The conditions noted are these: for EC50: Human betaherpesvirus 5, AD169, rAIC246-10 (UL56 V236M), CPE reduction assay, mean ± SD. As to the method:
as §1, §2, §3

The test system of experiment [9] is HCMV AD169 mutant rAIC246-9 (UL56 R369G). To be noted: for EC50: Human betaherpesvirus 5, AD169, rAIC246-9 (UL56 R369G), CPE reduction assay, mean ± SD. On the procedure:
as §1, §2, §3

Experiment [10] concerns HCMV AD169 mutant rAIC246-6 (UL56 R369M). To be noted: for EC50: Human betaherpesvirus 5, AD169, rAIC246-6 (UL56 R369M), CPE reduction assay, mean ± SD. As to the method: as §1, §2, §3

On to `Nc1nc(O)c2ncn(COC(CO)CO)c2n1` [Ganciclovir], for which the EC50 (as a rule, the concentration needed to bring the measured effect to its halfway point) came to 2.2 ± 1.2 µM in [1]; 4.2 ± 1.3 µM in experiment [2]; 1.2 ± 0.2 µM in experiment [3]; 2.2 ± 0.6 µM in [4]; 2.4 ± 2.5 µM in experiment [5]; 5 ± 0.4 µM in experiment [6]. For the same compound, the EC50 was 4 ± 0.9 µM in experiment [7], 1.7 ± 0.3 µM in [8], 1.7 ± 0.2 µM in [9] and 2.9 ± 0.9 µM in [10].
Consider `COc1cccc(N2CCN(C3=Nc4c(F)cccc4[C@H](CC(=O)O)N3c3cc(C(F)(F)F)ccc3OC)CC2)c1` [Letermovir, (S)-{8-fluoro-2-[4-(3-methoxyphenyl)-1-piperazinyl]-3-[2-methoxy-5-(trifluoromethyl)phenyl]-3,4-dihydro-4-quinazolinyl}acetic acid], for which the EC50 in experiment [1] is 25 ± 5.53 µM; in experiment [2], 0.13 ± 0.01 µM; in experiment [3], 1.24 ± 0.36 µM; in [4] it was 0.92 ± 0.12 µM; in experiment [5], 27 ± 3.27 µM; in [6] it was 0.11 ± 0.01 µM. The EC50 worked out at 0.37 ± 0.07 µM in experiment [7], 0.07 ± 0.02 µM in [8], 0.06 ± 0.04 µM in [9] and 0.08 ± 0.02 µM in [10]. Moreover, the “Resistance index (RI) = letermovir-EC50 mutant virus/letermovir-EC50 wild-type virus” value is listed as 4428 in experiment [1] (rAIC246-8 vs AD169); 23 in experiment [2] (rAIC246-4 vs AD169); 221 in experiment [3] (rAIC246-1 vs AD169); 164 in experiment [4] (rAIC246-7 vs AD169); 4801 in experiment [5] (rAIC246-3 vs AD169); 19 in experiment [6] (rAIC246-5 vs AD169). Besides, the “Resistance index (RI) = letermovir-EC50 mutant virus/letermovir-EC50 wild-type virus” value in experiment [7] (rAIC246-2 vs AD169) is 66; in experiment [8] (rAIC246-10 vs AD169), 13; in [9] (rAIC246-9 vs AD169), 11; in experiment [10] (rAIC246-6 vs AD169), 14.
